Laboratory results published in patent publication US20200038355A1, “ANTIOXIDANTS FOR USE IN OPHTHALMIC SURGERY” (Case Western Reserve University, priority 2017, published 2020).
Entries after “also recorded” stand apart in the source; their conditions may differ. Where a name gives a salt, the structure may show the parent alone.

Key:
Type in all cases: cell-based
HLE-B3 cells = experiment: EMT marker / Wnt-β-catenin immunoblot in human lens epithelial cell line HLE-B3; conditions: for type I collagen expression / vimentin expression: 24 h challenge, 25 μM DMF or both
Protocol: (§1) Cell Culture—Human lens epithelial cells (HLE-B3) were grown in DMEM medium with 10% fetal bovine serum (FBS), 2 mM glutamine and 50 unit/ml penicillin streptomycin (ThermoFisher, Waltham, Mass.) at 37° C. in a humidified 5% CO2 incubator. For primary porcine lens epithelial cell culture, pig eyes were collected at a local slaughterhouse within two hours of postmortem time, placed on ice and transported to the lab (about 1 hr) for immediate processing. First, the isolated lens was incubated with 2 ml of 0.25% trypsin at 37° C. for 2 min to remove any attached non-lens cells. Then, after a brief rinse with HBSS, the lens capsule was isolated and rinsed three times with HBSS before incubation with 2 ml of 0.5% trypsin for 5 min. 5 ml of complete DMEM medium was added and tissue was disrupted by pipetting up and down 10-15 times with a pipette fitted with a 1000 μl tip. The tissue homogenate was then passed through a 100 μm cell strainer. The cells were collected by low speed centrifugation at 150×g and placed in a 35 mm laminin-coated tissue culture dish with DMEM medium supplied with 10% FBS, 2 mM glutamine and 50 unit/ml penicillin streptomycin (ThernoFisher). The cells were cultured at 37° C. in a humidified incubator with 5% CO2.
(§2) Cells were placed 24 hr before the treatment and fresh medium was replaced immediately before the treatment. The indicated concentrations of BSO, DMF, NAC, GSH-EE or TGFβ2 were added to fresh medium and incubated at various time intervals as indicated. After treatment time, the cells were harvested after three washes with ice-cold PBS and subjected to immunoblot or other assays as described below. For whole lens culture, the serum-free medium with or without BSO, NAC, GSH-EE or TGFβ2 was incubated immediately after isolation for 48 hr and the whole lens or lens capsule was collected for further analysis. For lens explant culture, 48 hr after explant culture, various stimulates were used in fresh serum-free medium for an additional 48 hr, and the explant was fixed with 10% formaldehyde for 10 min before immunofluorescence stain, as described below.
The cells, whole lens, lens capsule, and lens fibers were collected and lysed in lysis buffer containing 20 mM Tris pH 7.5, 1 mM EDTA, 1 mM EGTA, 150 mM NaCl, 1% Triton X-100, 2.5 mM sodium pyrophosphate, 1 mM bα-Glycerolphosphate, 1 mM Na3VO4, 1 mg/ml Leupeptin, 1 mM PMSF on ice for 10 min. The protein concentration from the supernatant was determined by protein BCA assay (ThermoFisher). The protein extract was further processed for immunoblot analysis and probed for αSMA, collagen I, vimentin, phosphorylated Smad2, phosphorylated Smad3, phosphorylated GSK-3β and (β-catenin. All data were normalized to the level of GAPDH.

[1] = test system: primary porcine lens epithelial cells; experiment: αSMA expression in primary cultured porcine lens epithelial cells (pLEC)
Protocol: as §1
Cells were placed 24 hr before the treatment and fresh medium was replaced immediately before the treatment. The indicated concentrations of BSO, DMF, NAC, GSH-EE or TGFβ2 were added to fresh medium and incubated at various time intervals as indicated. After treatment time, the cells were harvested after three washes with ice-cold PBS and subjected to immunoblot or other assays as described below. […]
The cells, whole lens, lens capsule, and lens fibers were collected and lysed in lysis buffer containing 20 mM Tris pH 7.5, 1 mM EDTA, 1 mM EGTA, 150 mM NaCl, 1% Triton X-100, 2.5 mM sodium pyrophosphate, 1 mM bα-Glycerolphosphate, 1 mM Na3VO4, 1 mg/ml Leupeptin, 1 mM PMSF on ice for 10 min. The protein concentration from the supernatant was determined by protein BCA assay (ThermoFisher). […]

[2] = test system: mouse lens ex vivo culture; experiment: Mouse whole lens ex vivo culture, lens capsule immunoblot
Protocol: The isolated intact lens was rinsed three times with HBSS and then cultured in 12-well-plates with serum-free Medium 199 (ThermoFisher) with 50 unit/ml penicillin streptomycin at 37° C. in 5% CO2 incubator, as described above. The lens explant was cultured following the same procedure as described by a previous report. […] et al., Exp Eye Res 71, 591-597 (2000). In brief, the mouse lens was placed in an anterior-toposterior orientation with the anterior attached to the culture dish. The lens posterior capsule was torn/cut by the tip of extra-fine forceps and then peeled towards anterior capsule and pinned on the plastic culture dish. The lens fiber mass was removed thereafter. The explant was cultured in serum-free MEM medium supplied with 50 unit/ml penicillin streptomycin at 37° C. in 5% CO2 incubator as described above. Only healthy growing explants were used for the described study and any unhealthy looking explants, such as folded explants or those with cell detachment, were discarded. Cells were placed 24 hr before the treatment and fresh medium was replaced immediately before the treatment. The indicated concentrations of BSO, DMF, NAC, GSH-EE or TGFβ2 were added to fresh medium and incubated at various time intervals as indicated. After treatment time, the cells were harvested after three washes with ice-cold PBS and subjected to immunoblot or other assays as described below. For whole lens culture, the serum-free medium with or without BSO, NAC, GSH-EE or TGFβ2 was incubated immediately after isolation for 48 hr and the whole lens or lens capsule was collected for further analysis. For lens explant culture, 48 hr after explant culture, various stimulates were used in fresh serum-free medium for an additional 48 hr, and the explant was fixed with 10% formaldehyde for 10 min before immunofluorescence stain, as described below. The cells, whole lens, lens capsule, and lens fibers were collected and lysed in lysis buffer containing 20 mM Tris pH 7.5, 1 mM EDTA, 1 mM EGTA, 150 mM NaCl, 1% Triton X-100, 2.5 mM sodium pyrophosphate, 1 mM bα-Glycerolphosphate, 1 mM Na3VO4, 1 mg/ml Leupeptin, 1 mM PMSF on ice for 10 min. The protein concentration from the supernatant was determined by protein BCA assay (ThermoFisher). The protein extract was further processed for immunoblot analysis and probed for αSMA, collagen I, vimentin, phosphorylated Smad2, phosphorylated Smad3, phosphorylated GSK-3β and (β-catenin. All data were normalized to the level of GAPDH.

lens explant = experiment: Mouse lens explant culture (ex vivo PCO mimetic model), αSMA immunofluorescence; conditions: 1 ng/ml TGFβ2, 48 hr stimulation
Protocol: The isolated intact lens was rinsed three times with HBSS and then cultured in 12-well-plates with serum-free Medium 199 (ThermoFisher) with 50 unit/ml penicillin streptomycin at 37° C. in 5% CO2 incubator, as described above. The lens explant was cultured following the same procedure as described by a previous report. Tamiya et al., Exp Eye Res 71, 591-597 (2000). In brief, the mouse lens was placed in an anterior-toposterior orientation with the anterior attached to the culture dish. The lens posterior capsule was torn/cut by the tip of extra-fine forceps and then peeled towards anterior capsule and pinned on the plastic culture dish. The lens fiber mass was removed thereafter. The explant was cultured in serum-free MEM medium supplied with 50 unit/ml penicillin streptomycin at 37° C. in 5% CO2 incubator as described above. Only healthy growing explants were used for the described study and any unhealthy looking explants, such as folded explants or those with cell detachment, were discarded.
as §2, with “For lens explant culture, 48 hr after explant culture, various stimulates were used in fresh serum-free medium for an additional 48 hr, and the explant was fixed with 10% formaldehyde for 10 min before immunofluorescence stain, as described below.” left out
Confocal microscope—All confocal images were collected by a Leica SP8 gSTED confocal microscope equipped with two 3 Hyd SP GaAsP detectors and the AOBS system lasers include a 405 nm, Argon (458, 476, 488, 496, 514 nm), a tunable white light (470 to 670 nm), and a 592 nm STED depletion laser. For proper comparison, each channel of fluorescence was adjusted to the highest sensitivity/intensity but without over saturation from samples with the strongest signal. […]

[3] = HLE-B3 cells, 24 hr treatment with increasing concentration of BSO or DMF
[4] = HLE-B3 cells, 24 hr, 500 μM BSO or 25 μM DMF
[5] = mouse lens ex vivo culture, 500 μM BSO, 48 hrs
[6] = HLE-B3 cells, XAV939 co-incubated with 500 μM BSO, 24 hr
[7] = lens capsule after ex vivo lens culture, BSO plus XAV939, 48 hr

CCCCS(=N)(=O)CCC(N)C(=O)O (stereo not shown) [BSO, buthionine sulfoximine]
phosphorylation status of Smad2 and Smad3 (HLE-B3 cells; HLE-B3 cells with or without 500 μM BSO, 24 hr): no remarkable changes
αSMA production, combination with TGFβ2 (HLE-B3 cells; HLE-B3 cells, 500 μM BSO combined with 1 ng/ml TGFβ2, 24 hr): synergistic effect
phosphorylation at serine 9 of GSK-3β (HLE-B3 cells; HLE-B3 cells, 500 μM BSO, 24 hr): significantly elevated; also recorded: significantly increased
type I collagen expression (HLE-B3 cells; HLE-B3 cells, 500 μM BSO): Significantly increased; also recorded: significantly elevated
vimentin expression (HLE-B3 cells; HLE-B3 cells, 500 μM BSO): Significantly increased; also recorded: significantly elevated
αSMA expression (HLE-B3 cells; [3]): increased; also recorded: significantly upregulated
αSMA expression (HLE-B3 cells; [4]): Significantly increased
αSMA expression ([1]; pLECs, increased concentration of BSO, 24 hr): increases
concentration required to stimulate a similar fold of αSMA production ([1]; primary porcine lens epithelial cells, 24 hr, 100 times lower than in HLE-B3): 5 µM
cell death ([1]; primary porcine lens epithelial cells, higher dosages of BSO (>100 μM)): massive cell death and detachment
phosphorylation at serine 9 of GSK-3β ([2]; lens capsules after whole lens ex vivo culture with BSO, 48 hr): significantly increased
increase of vimentin expression compared to medium alone [2, 5]: ~2 fold
increase of αSMA expression compared to medium alone [2, 5]: over 3.5 fold

COC(=O)/C=C/C(=O)OC [DMF, dimethyl fumarate]
type I collagen expression (HLE-B3 cells; HLE-B3 cells, 500 μM BSO): Significantly increased; also recorded: significantly elevated
vimentin expression (HLE-B3 cells; HLE-B3 cells, 500 μM BSO): Significantly increased; also recorded: significantly elevated
αSMA expression (HLE-B3 cells; [3]): increased; also recorded: significantly upregulated
αSMA expression (HLE-B3 cells; [4]): Significantly increased

Oc1nc(-c2ccc(C(F)(F)F)cc2)nc2c1CSCC2 [XAV939]
αSMA production after BSO challenge (HLE-B3 cells; [6]): block
β-catenin production after BSO challenge (HLE-B3 cells; [6]): block
αSMA production after BSO challenge [2, 7]: block
β-catenin production after BSO challenge [2, 7]: block

B1: TGFβ2: Human TGFβ2, profibrogenic cytokine purchased from Sigma-Aldrich (protein, UniProt P61812 303-414, looked up)
Transforming growth factor …: ALDAAYCFRNVQDNCCLRPLYIDFKRDLGWKWIHEPKGYNANFCAGACPYLWSSDTQHSRVLSLYNTINPEASASPCCVSQDLEPLTILYYIGKTPKIEQLSNMIVKSCKCS
αSMA expression in lens explant compared to medium alone (lens explant): activated; also recorded: profound elevation
